Experimental data as given in ChEMBL document CHEMBL1201862, “PubChem BioAssay data set” (2004).
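Exposure lasted 48 hours, with cells grown in 96-well plates and compounds tested at five concentrations. GI50 = concentration required for 50% inhibition of growth.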 Activity calls are given as the source filed them. Cut-off read from the data, not from the text of the source: active = GI50 up to about 1.1 µM and inactive = higher.

Tests used:
Assay in all cases: NCI anticancer screen, dose series, 48 h
SNB-78 = system: SNB-78
NCI-H23 = system: NCI-H23
UACC-62 = system: UACC-62
DLD-1 = system: DLD-1
XF498 = system: XF498
SK-OV-3 = system: SK-OV-3
OVCAR-3 = system: OVCAR-3
SNB-75 = system: SNB-75
A498 = system: A498
NCI-H226 = system: NCI-H226
M14 = system: M14
M19-MEL = system: M19-MEL
786-0 = system: 786-0
HL-60 = system: HL-60
SK-MEL-28 = system: SK-MEL-28
KM12 = system: KM12
HCC 2998 = system: HCC 2998
LXFL 529 = system: LXFL 529
SW-620 = system: SW-620
UO-31 = system: UO-31
DMS-114 = system: DMS-114
SNB-19 = system: SNB-19
HCT-15 = system: HCT-15
KM-20L2 = system: KM-20L2
COLO 205 = system: COLO 205
SK-MEL-2 = system: SK-MEL-2
NCI-H522 = system: NCI-H522
SF-268 = system: SF-268
U-251 = system: U-251
Malme-3M = system: Malme-3M
HOP-92 = system: HOP-92
A549 = system: A549
HOP-18 = system: HOP-18
SF-295 = system: SF-295
UACC-257 = system: UACC-257
ACHN = system: ACHN
SN12C = system: SN12C
K562 = system: K562
NCI-H460 = system: NCI-H460
OVCAR-5 = system: OVCAR-5
EKVX = system: EKVX
CCRF-CEM = system: CCRF-CEM
RPMI-8226 = system: RPMI-8226
TK-10 = system: TK-10
RXF 393 = system: RXF 393
SF-539 = system: SF-539
MOLT-4 = system: MOLT-4
OVCAR-8 = system: OVCAR-8
IGROV-1 = system: IGROV-1
HOP-62 = system: HOP-62
HCT-116 = system: HCT-116
OVCAR-4 = system: OVCAR-4
HT-29 = system: HT-29
LOX IMVI = system: LOX IMVI

For O=c1ccc2ccccc2o1 [COUMARIN], the GI50 (SNB-78) was > 100 µM (inactive), the GI50 (NCI-H23) was > 100 µM (inactive) and the GI50 (UACC-62) was > 100 µM (inactive). For the same compound, the GI50 (DLD-1) was > 100 µM (inactive), the GI50 (XF498) was > 100 µM (inactive) and the GI50 (SK-OV-3) was > 100 µM (inactive). For the same compound, the GI50 (OVCAR-3) was > 100 µM (inactive), the GI50 (SNB-75) was > 100 µM (inactive) and the GI50 (A498) was > 100 µM (inactive). For the same compound, the GI50 (NCI-H226) was > 100 µM (inactive), the GI50 (M14) was > 100 µM (inactive) and the GI50 (M19-MEL) was > 100 µM (inactive). For the same compound, the GI50 (786-0) was > 100 µM (inactive), the GI50 (HL-60) was > 100 µM (inactive) and the GI50 (SK-MEL-28) was > 100 µM (inactive). The GI50 (KM12) was > 100 µM (inactive), the GI50 (HCC 2998) was > 100 µM (inactive) and the GI50 (LXFL 529) was > 100 µM (inactive). The GI50 (SW-620) was > 100 µM (inactive), the GI50 (UO-31) was > 100 µM (inactive) and the GI50 (DMS-114) was > 100 µM (inactive). For the same compound, the GI50 (SNB-19) was > 100 µM (inactive), the GI50 (HCT-15) was greater than 100 µM and the GI50 (KM-20L2) was > 100 µM (inactive). For the same compound, the GI50 (COLO 205) was > 100 µM (inactive), the GI50 (SK-MEL-2) was > 100 µM (inactive) and the GI50 (NCI-H522) was > 100 µM (inactive). For the same compound, the GI50 (SF-268) was > 100 µM (inactive), the GI50 (U-251) was > 100 µM (inactive) and the GI50 (Malme-3M) was > 100 µM (inactive). The GI50 (HOP-92) was > 100 µM (inactive), the GI50 (A549) was > 100 µM (inactive) and the GI50 (HOP-18) was > 100 µM (inactive). The GI50 (SF-295) was > 100 µM (inactive), the GI50 (UACC-257) was > 100 µM (inactive) and the GI50 (ACHN) was > 100 µM (inactive). For the same compound, the GI50 (SN12C) was > 100 µM (inactive), the GI50 (K562) was > 100 µM (inactive) and the GI50 (NCI-H460) was > 100 µM (inactive). The GI50 (OVCAR-5) was > 100 µM (inactive), the GI50 (EKVX) was > 100 µM (inactive) and the GI50 (CCRF-CEM) was > 100 µM (inactive). For the same compound, the GI50 (RPMI-8226) was > 100 µM (inactive), the GI50 (TK-10) was > 100 µM (inactive) and the GI50 (RXF 393) was > 100 µM (inactive). The GI50 (SF-539) was > 100 µM (inactive), the GI50 (MOLT-4) was > 100 µM (inactive) and the GI50 (OVCAR-8) was > 100 µM (inactive). For the same compound, the GI50 (IGROV-1) was > 100 µM (inactive), the GI50 (HOP-62) was > 100 µM (inactive) and the GI50 (HCT-116) was > 100 µM (inactive). For the same compound, the GI50 (OVCAR-4) was > 100 µM (inactive), the GI50 (HT-29) was > 100 µM (inactive) and the GI50 (LOX IMVI) was > 100 µM (inactive).
